Tests used:
human GnRHR = target: T1, human GnRHR (Homo sapiens, UniProt P30968); test: Tag-Lite receptor binding assay; conditions: Hek293 cells transiently transfected with human GnRHR; green-labelled GnRHR binding peptide; read-out: Potency in receptor binding assay using TAG-LITE technology, given as IC50
T1 construct: host or cells: HEK293 (transient transfection), purchased as frozen labelled cells
T1 sequence (P30968 1-328): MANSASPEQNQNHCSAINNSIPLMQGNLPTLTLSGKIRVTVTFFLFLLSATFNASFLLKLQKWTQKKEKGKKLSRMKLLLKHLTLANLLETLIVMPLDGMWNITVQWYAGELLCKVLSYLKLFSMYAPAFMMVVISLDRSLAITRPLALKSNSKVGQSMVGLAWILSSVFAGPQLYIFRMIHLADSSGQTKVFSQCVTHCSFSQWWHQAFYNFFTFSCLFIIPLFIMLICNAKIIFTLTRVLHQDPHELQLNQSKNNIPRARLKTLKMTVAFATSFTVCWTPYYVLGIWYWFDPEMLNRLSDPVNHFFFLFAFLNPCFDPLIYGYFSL
Description: This binding assay is based on the fluorescence resonance energy transfer between fluorescence donor labelled human GnRHR and a green-labelled GnRHR binding peptide. Compounds interfering with the ligand binding side of the human GnRHR will replace the labelled peptide resulting in a signal decrease. The assay principle was established by Cisbio Bioassays (Bagnols-sur-Cèze Cedex, France) and further details are available on their homepage.
The assay procedure was further optimized for use in-house with reduced assay volumes. Frozen Hek293 cells, transiently transfected with human GnRHR and Terbium-labelling of the receptor, were supplied by Cisbio Bioassays as well as Tag-Lite buffer and green-labelled GnRHR binding peptide. Cells were thawed and transferred to cold Tag-Lite buffer. A volume of 8 μl of this cell suspension were added to 100 nl of a 160-fold concentrated solution of the test compound in DMSO pre-dispensed in a well of a white low-volume 384-well microtiter plate (Greiner Bio-One, Frickenhausen, Germany). The mixture was incubated for 5 min at room temperature. In the next step either 4 μl Tag-Lite buffer or as control 4 μl of an exceeding amount unlabelled binding peptide in Tag-Lite buffer were transferred to the mixture. The green-labelled GnRHR binding peptide was added in a final step at EC50 in a volume of 4 μl Tag-Lite buffer. After an incubation of 1 h at room temperature plates were measured in a microplate reader, e.g. a PHERAstar (BMG Labtechnologies, Offenburg, Germany) by using a specific optic module.
A ratio from the fluorescence emissions at 520 nm (green fluorescence) and at 490 nm (background signal of Terbium-labelled GnRHR) was calculated and the data were normalized (reaction without test compound=0% inhibition of binding of green-labelled peptide; reaction without test compound with exceeding amount unlabelled binding peptide=100% inhibition of binding of green-labelled peptide). On the same microtiter plate, compounds were tested at 10 different concentrations in the range of 12.5 μM to 0.64 nM (12.5 μM, 4.2 μM, 1.4 μM, 0.46 μM, 0.15 μM, 51 nM, 17 nM, 5.7 nM, 1.9 nM and 0.64 nM; dilution series prepared before the assay at the level of the 160-fold conc. stock solutions by serial 1:3 dilutions in 100% DMSO) in duplicate values for each concentration. By using an in-house software, the IC50 values were calculated by a 4 parameter fit.

human GnRH receptor = target: T2, human GnRH receptor (Homo sapiens, UniProt P30968); test: IP-One HTRF assay with buserelin (at EC80) stimulation; assay type: cell-based; conditions: CHO cells stably expressing human GnRH receptor, read-out: Potency in IP-One HTRF assay, given as IC50
T2 sequence (P30968 1-328): T1 sequence (P30968 1-328)
Outline: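 Ten-point duplicate titrations (20 μM to 1 nM) were fitted by 4-parameter model to normalized 665/620 nm HTRF ratios, 0% = no compound, 100% = no agonist. Assay measured IP1 accumulation in human GnRH-R CHO cells stimulated 1 h at 37° C with EC80 buserelin, then lysed 1 h at 22° C.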

Row | Compound | IC50 (human GnRHR) [nM] | IC50 (human GnRH receptor) [nM]
1 | O=C(NCc1ccccc1Cl)c1ccc2c(c1)C1(CC[S+]([O-])CC1)C(C1CC1)N2S(=O)(=O)c1ccc(F)cc1 (single isomer, unassigned) [Example 13.1, N-(2-Chlorobenzyl)-2-cyclopropyl-1-[(4-fluorophenyl)sulfonyl]-1,2,2′,3′,5′,6′-hexahydrospiro[indole-3,4′-thiopyran]-5-carboxamide 1′-oxide] | 8.5 | 12
2 | O=C(NCc1ccccc1Cl)c1ccc2c(c1)C1(CCS(=O)(=O)CC1)C(C1CC1)N2S(=O)(=O)c1ccc(F)cc1 (single isomer, unassigned) [Example 18.1, N-(2-chlorobenzyl)-2-cyclopropyl-1-[(4-fluorophenyl)sulfonyl]-1,2,2′,3′,5′,6′-hexahydrospiro[indole-3,4′-thiopyran]-5-carboxamide 1′,1′-dioxide] | 11 | 26
3 | O=C(NCc1ccccc1C(F)F)c1ccc2c(c1)C1(CCS(=O)(=O)CC1)C(C1CC1)N2S(=O)(=O)c1ccc(F)cc1 (single isomer, unassigned) [Example 68.1, 2-cyclopropyl-N-[2-(difluoromethyl)benzyl]-1-[(4-fluorophenyl)sulfonyl]-1,2,2′,3′,5′,6′-hexahydrospiro[indole-3,4′-thiopyran]-5-carboxamide 1′,1′-dioxide] | 9.5 | 4.2
4 | O=C(Nc1cccc(Cl)c1)c1ccc2c(c1)C1(CCS(=O)(=O)CC1)C(C1CC1)N2S(=O)(=O)c1ccc(F)cc1 (stereo not drawn) [Example 24, N-(3-chlorophenyl)-2-cyclopropyl-1-[(4-fluorophenyl)sulfonyl]-1,2,2′,3′,5′,6′-hexahydrospiro[indole-3,4′-thiopyran]-5-carboxamide 1′,1′-dioxide] | 187 | 264
5 | O=C(Nc1ccccc1Cl)c1ccc2c(c1)C1(CCS(=O)(=O)CC1)C(C1CC1)N2S(=O)(=O)c1ccc(F)cc1 (stereo not drawn) [Example 67, N-(2-chlorophenyl)-2-cyclopropyl-1-[(4-fluorophenyl)sulfonyl]-1,2,2′,3′,5′,6′-hexahydrospiro[indole-3,4′-thiopyran]-5-carboxamide 1′,1′-dioxide] | 154 | 113
6 | N#Cc1ccc(S(=O)(=O)N2c3ccc(C(=O)Nc4ccccc4F)cc3C3(CCS(=O)(=O)CC3)C2C2CC2)cc1 (stereo not drawn) [Example 75, 1-[(4-cyanophenyl)sulfonyl]-2-cyclopropyl-N-(2-fluorophenyl)-1,2,2′,3′,5′,6′-hexahydrospiro[indole-3,4′-thiopyran]-5-carboxamide 1′,1′-dioxide] | 30 | 53
7 | O=C(NCc1ncccc1C(F)(F)F)c1ccc2c(c1)C1(CCS(=O)(=O)CC1)C(C1CC1)N2S(=O)(=O)c1cccc(OC(F)F)c1 (stereo not drawn) [Example 87, 2-cyclopropyl-1-{[3-(difluoromethoxy)phenyl]sulfonyl}-N-{[3-(trifluoromethyl)pyridin-2-yl]methyl}-1,2,2′,3′,5′,6′-hexahydrospiro[indole-3,4′-thiopyran]-5-carboxamide 1′,1′-dioxide] |  | 143
8 | O=C(Nc1cncc(Cl)c1)c1ccc2c(c1)C1(CCS(=O)(=O)CC1)C(C1CC1)N2S(=O)(=O)c1cccc(OC(F)F)c1 (stereo not drawn) [Example 88, N-(5-chloropyridin-3-yl)-2-cyclopropyl-1-{[3-(difluoromethoxy)phenyl]sulfonyl}-1,2,2′,3′,5′,6′-hexahydrospiro[indole-3,4′-thiopyran]-5-carboxamide 1′,1′-dioxide] |  | 262
9 | COC(=O)c1cccc(NC(=O)c2ccc3c(c2)C2(CCS(=O)(=O)CC2)C(C2CC2)N3S(=O)(=O)c2cccc(OC(F)F)c2)c1 (stereo not drawn) [Example 89, methyl 3-{[(2-cyclopropyl-1-{[3-(difluoromethoxy)phenyl]sulfonyl}-1′,1′-dioxido-1,2,2′,3′,5′,6′-hexahydrospiro[indole-3,4′-thiopyran]-5-yl)carbonyl]amino}benzoate] |  | 134
10 | O=C(NCc1ccccc1C(F)F)c1ccc2c(c1)C1(CCS(=O)(=O)CC1)C(C1CC1)N2S(=O)(=O)c1ccc(OC(F)F)cc1 (stereo not drawn) [Example 91, 2-cyclopropyl-1-{[4-(difluoromethoxy)phenyl]sulfonyl}-N-[2-(difluoromethyl)benzyl]-1,2,2′,3′,5′,6′-hexahydrospiro[indole-3,4′-thiopyran]-5-carboxamide 1′,1′-dioxide] |  | 5.9
11 | O=C(NCc1ccccc1C(F)(F)F)c1ccc2c(c1)C1(CCS(=O)(=O)CC1)C(C1CC1)N2S(=O)(=O)c1ccc(OC(F)F)cc1 (stereo not drawn) [Example 92, 2-cyclopropyl-1-{[4-(difluoromethoxy)phenyl]sulfonyl}-N-[2-(trifluoromethyl)benzyl]-1,2,2′,3′,5′,6′-hexahydrospiro[indole-3,4′-thiopyran]-5-carboxamide 1′,1′-dioxide] |  | 31
12 | O=C(NCc1ncccc1C(F)(F)F)c1ccc2c(c1)C1(CCS(=O)(=O)CC1)C(C1CC1)N2S(=O)(=O)c1ccc(OC(F)F)cc1 (stereo not drawn) [Example 93, 2-cyclopropyl-1-{[4-(difluoromethoxy)phenyl]sulfonyl}-N-{[3-(trifluoromethyl)pyridin-2-yl]methyl}-1,2,2′,3′,5′,6′-hexahydrospiro[indole-3,4′-thiopyran]-5-carboxamide 1′,1′-dioxide] |  | 53
13 | NC(=O)c1ccc(S(=O)(=O)N2c3ccc(C(=O)NCc4ccccc4Cl)cc3C3(CCS(=O)(=O)CC3)C2C2CC2)cc1 (stereo not drawn) [Example 94, 1-[(4-carbamoylphenyl)sulfonyl]-N-(2-chlorobenzyl)-2-cyclopropyl-1,2,2′,3′,5′,6′-hexahydrospiro[indole-3,4′-thiopyran]-5-carboxamide 1′,1′-dioxide] |  | 222
14 | CN1CCCC1=NS(=O)(=O)c1cccc(NC(=O)c2ccc3c(c2)C2(CCS(=O)(=O)CC2)C(C2CC2)N3S(=O)(=O)c2ccc(C(N)=O)cc2)c1 (stereo not drawn) [Example 95, 1-[(4-carbamoylphenyl)sulfonyl]-2-cyclopropyl-N-{3-[(1-methylpyrrolidin-2-ylidene)sulfamoyl]phenyl}-1,2,2′,3′,5′,6′-hexahydrospiro[indole-3,4′-thiopyran]-5-carboxamide 1′,1′-dioxide] |  | 225
15 | NC(=O)c1ccc(S(=O)(=O)N2c3ccc(C(=O)Nc4cccc(S(=O)(=O)Nc5nccs5)c4)cc3C3(CCS(=O)(=O)CC3)C2C2CC2)cc1 (stereo not drawn) [Example 96, 1-[(4-carbamoylphenyl)sulfonyl]-2-cyclopropyl-N-[3-(1,3-thiazol-2-ylsulfamoyl)phenyl]-1,2,2′,3′,5′,6′-hexahydrospiro[indole-3,4′-thiopyran]-5-carboxamide 1′,1′-dioxide] |  | 484
16 | O=C(Nc1ccc2c(c1)C1(CCS(=O)(=O)CC1)C(C1CC1)N2S(=O)(=O)c1ccc(F)cc1)C1CC1 (stereo not drawn) [Example 97, N-{2-Cyclopropyl-1-[(4-fluorophenyl)sulfonyl]-1′,1′-dioxido-1,2,2′,3′,5′,6′-hexahydrospiro[indole-3,4′-thiopyran]-5-yl}cyclopropanecarboxamide] |  | 2230
17 | O=C(Nc1ccc2c(c1)C1(CCS(=O)(=O)CC1)C(C1CC1)N2S(=O)(=O)c1ccc(F)cc1)C1CCCCC1 (stereo not drawn) [Example 98, N-{2-cyclopropyl-1-[(4-fluorophenyl)sulfonyl]-1′,1′-dioxido-1,2,2′,3′,5′,6′-hexahydrospiro[indole-3,4′-thiopyran]-5-yl}cyclohexanecarboxamide] |  | 39
18 | O=C(Nc1ccc2c(c1)C1(CCS(=O)(=O)CC1)C(C1CC1)N2S(=O)(=O)c1ccc(F)cc1)C1CCCC1 (stereo not drawn) [Example 99, N-{2-cyclopropyl-1-[(4-fluorophenyl)sulfonyl]-1′,1′-dioxido-1,2,2′,3′,5′,6′-hexahydrospiro[indole-3,4′-thiopyran]-5-yl}cyclopentanecarboxamide] |  | 300

— patent US20140357655A1, “SPIROINDOLINE DERIVATIVES AS GONADOTROPIN- RELEASING HORMONE RECEPTOR ANTAGONISTS” (Bayer Intellectual Property GmbH, priority 2012, published 2014)
